Test results as given in ChEMBL document CHEMBL5360657, “Discovery of the TLR7/8 Antagonist MHV370 for Treatment of Systemic Autoimmune Diseases” (ACS Med Chem Lett, 2023).

Experiments:
[1] = Tlast in mouse at 20 mg/kg, po; type: ADME, organism-based; details: in vivo
[2] = Efflux ratio of permeability basolateral to apical over apical to basolateral side in human Caco-2 cells; type: ADME, cell-based
[3] = target: T1, Nuclear receptor subfamily 1 group I member 2 (Homo sapiens, UniProt O75469); experiment: Induction of PXR (unknown origin) relative to control
T1 sequence (O75469 whole entry): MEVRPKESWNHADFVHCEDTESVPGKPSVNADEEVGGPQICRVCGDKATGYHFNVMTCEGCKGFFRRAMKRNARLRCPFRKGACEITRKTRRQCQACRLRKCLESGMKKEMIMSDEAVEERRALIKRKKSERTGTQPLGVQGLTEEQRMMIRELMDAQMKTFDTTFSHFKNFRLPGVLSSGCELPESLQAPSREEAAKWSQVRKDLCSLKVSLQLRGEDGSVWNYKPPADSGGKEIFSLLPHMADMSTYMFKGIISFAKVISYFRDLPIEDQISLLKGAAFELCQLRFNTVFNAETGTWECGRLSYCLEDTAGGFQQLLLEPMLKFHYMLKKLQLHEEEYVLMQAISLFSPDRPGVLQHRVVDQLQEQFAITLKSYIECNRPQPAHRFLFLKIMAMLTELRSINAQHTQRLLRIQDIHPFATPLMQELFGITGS

Tlast [1]: 7 h | efflux ratio [2]: 7.5 | Activity [3]: 7.9%
SMILES: Cc1cc(N2CCc3c(c(C)nn3CC34CCC(N)(CC3)CC4)C2)c2cnn(C)c2n1
